pIC50: −log10 of the molar value.
Biological target: T1, mouse TLR7 (Mus musculus, UniProt P58681)
T1 construct: host or cells: HEK293 (293XL-mTLR7)
T1 sequence (P58681 27-1050): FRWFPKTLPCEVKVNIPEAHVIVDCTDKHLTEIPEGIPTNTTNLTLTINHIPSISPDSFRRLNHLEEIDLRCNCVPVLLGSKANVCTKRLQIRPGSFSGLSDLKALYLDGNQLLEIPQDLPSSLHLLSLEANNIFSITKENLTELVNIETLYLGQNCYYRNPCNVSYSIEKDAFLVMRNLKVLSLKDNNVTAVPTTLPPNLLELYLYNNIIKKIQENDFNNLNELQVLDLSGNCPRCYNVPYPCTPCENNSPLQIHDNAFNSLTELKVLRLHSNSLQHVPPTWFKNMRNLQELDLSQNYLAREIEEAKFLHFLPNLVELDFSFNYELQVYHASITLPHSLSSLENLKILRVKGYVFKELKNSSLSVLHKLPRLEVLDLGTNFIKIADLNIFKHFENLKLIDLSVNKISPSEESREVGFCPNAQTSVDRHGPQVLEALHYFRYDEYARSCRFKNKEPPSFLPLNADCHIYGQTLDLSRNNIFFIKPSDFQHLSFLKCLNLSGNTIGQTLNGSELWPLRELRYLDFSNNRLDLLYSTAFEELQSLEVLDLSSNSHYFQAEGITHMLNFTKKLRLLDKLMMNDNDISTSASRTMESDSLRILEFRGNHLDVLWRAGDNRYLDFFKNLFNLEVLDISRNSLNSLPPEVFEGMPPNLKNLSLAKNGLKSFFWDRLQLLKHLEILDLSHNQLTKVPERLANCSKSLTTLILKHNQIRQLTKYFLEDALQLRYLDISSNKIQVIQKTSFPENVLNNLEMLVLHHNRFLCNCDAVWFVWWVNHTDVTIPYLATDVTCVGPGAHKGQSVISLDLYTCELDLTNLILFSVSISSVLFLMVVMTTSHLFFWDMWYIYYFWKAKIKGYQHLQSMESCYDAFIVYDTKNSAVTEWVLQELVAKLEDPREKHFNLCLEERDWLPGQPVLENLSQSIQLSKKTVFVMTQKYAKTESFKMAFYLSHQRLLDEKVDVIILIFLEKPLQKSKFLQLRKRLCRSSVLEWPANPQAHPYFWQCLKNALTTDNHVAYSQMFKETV
Assay: Mouse TLR7 reporter gene assay (NF-kB luciferase, HEK293)
Type: cell-based
Description: Compounds were dissolved in dimethyl sulfoxide. The day before transfection, mouse TLR7 genestably-expressing HE293 cell line (293XL-mTLR7 cell, InvivoGen, USA) and mouse TLR9 genestably-expressing HEK293 cell line (293-mTLR9 cell, InvivoGen) were seeded in collagen-coated 6-well plate (AGC techno glass) at 3 × 10^5 cells/well in DMEM (GIBCO) with 10% fetal bovine serum (GIBCO), and 10 μg ml^−1 Blastcidin S HCl (GIBCO) and incubated at 37 °C in 5% CO2. The plates were incubated over-night and then cotransfected with 1 μg (mouse TLR7) or 0.3 μg (mouse TLR9) of pNF-kB-Luciferase reporter in a 10:1 ratio with 4 μl of FuGene6 transfection reagent (Promega corporation, USA) following the manufacturer’s instructions. The plates were incubated 24 h. The cells re-seeded into 96-well plate (AGC techno glass) at 2 × 10^4 cells/well in DMEM (GIBCO) with 10% fetal bovine serum (GIBCO), and 10 μg ml^−1 Blastcidin S HCl (GIBCO) and then inhibition with various concentrations of compound. HCQ (mouse TLR7/9, Acros Organics, United Kingdom) was used as positive control. After 30 min, R848 (mouse TLR7/8 ligand) or CpG1826 (mouse TLR9 ligand, Hokkaido System Science Co., Ltd.) added to each well, wherein each final concentration were adjusted to 200 nM R848 (mouse TLR7) or 100 nM CpG1826 (mouse TLR9). The plates were then incubated an additional 6 h at 37 °C in 5% CO2, and then the luciferase activity was measured as activation of mouse TLR7 and 9. The luciferase activity was evaluated as follows: Bright-GloTM Luciferase Assay System (Promega) was added to the incubated sample (100 μl/well); after 2 min, the luminescence intensity of each sample was measured with a luminometer (Envision).

[1] = compound 0.0001 nM (as headed), R848 200 nM
[2] = compound 0.001 nM (as headed), R848 200 nM
[3] = compound 0.003 nM (as headed), R848 200 nM
[4] = compound 0.01 nM (as headed), R848 200 nM
[5] = compound 0.03 nM (as headed), R848 200 nM
[6] = compound 0.1 nM (as headed), R848 200 nM
[7] = compound 0.3 nM (as headed), R848 200 nM
[8] = compound 1 nM (as headed), R848 200 nM
[9] = compound 3 nM (as headed), R848 200 nM
[10] = compound 10 nM (as headed), R848 200 nM
[11] = compound 30 nM (as headed), R848 200 nM
[12] = compound 100 nM (as headed), R848 200 nM

| SMILES | selectivity mouse TLR7 vs TLR9 | pIC50 (R848 200 nM) | mouse TLR7 activity, reporter signal [1] | mouse TLR7 activity, reporter signal [2] | mouse TLR7 activity, reporter signal [3] | mouse TLR7 activity, reporter signal [4] | mouse TLR7 activity, reporter signal [5] | mouse TLR7 activity, reporter signal [6] | mouse TLR7 activity, reporter signal [7] | mouse TLR7 activity, reporter signal [8] | mouse TLR7 activity, reporter signal [9] | mouse TLR7 activity, reporter signal [10] | mouse TLR7 activity, reporter signal [11] | mouse TLR7 activity, reporter signal [12] |
| --- | --- | --- | --- | --- | --- | --- | --- | --- | --- | --- | --- | --- | --- | --- |
| CCOc1nc(C)c2nc(-c3cncc(F)c3)n(Cc3ccc(CN4C[C@@H]5C[C@H]4CN5C)cc3)c2n1 [Cpd-7] | TLR7-selective | 6.72 | 7166 | 5248 | 4474 | 4918 | 5112 | 4262 | 2860 | 1240 | 1308 | 550 | 0 | 0 |
| CCN(CCO)CCCC(C)Nc1ccnc2cc(Cl)ccc12 (centres unmarked) [HCQ, hydroxychloroquine, reference compound] | – | – | 7166 | 7642 | 8310 | 7288 | 6268 | 6670 | 9264 | 7190 | 9456 | 3934 | 558 | 1958 |

— article PMC7562955 (Nature Communications, 2020)
